Reference: publication PMC6930659, “Antiprotozoal Activity of Turkish Origanum onites Essential Oil and Its Components” (Molecules, 2019)
≈ marks a conversion by molar mass, not a printed value. Where two headings read alike, the source gives them in different places.

Experiments:
[1] = test system: intracellular amastigotes of T.-cruzi-infected Vero cells; design: method as in PMID 20428679; conditions: cited from earlier work
[2] = test system: T. cruzi trypomastigotes; design: method as in PMID 17024354; conditions: 24 h incubation; cited from earlier work
[3] = test system: Trypanosoma brucei rhodesiense STIB 900; experiment: In vitro assay for Trypanosoma brucei rhodesiense (resazurin); type: cell-based
Description: Trypanosoma brucei rhodesiense STIB 900 strain, isolated in 1982 from a human patient in Tanzania and, after several mouse passages, cloned and adapted to axenic culture conditions, was used in this assay. Minimum essential medium (50 μL) supplemented with 25 mM HEPES, 1 g/L additional glucose, 1% MEM non-essential amino acids (100×), 0.2 mM 2-mercaptoethanol, 1 mM Na-pyruvate, and 15% heat inactivated horse serum was added to each well of a 96 well microtiter plate. Serial drug dilutions of seven 3-fold dilution steps covering a range from 90 to 0.123 μg/mL were prepared, and then 4 × 10^4 blood stream forms of T. b. rhodesiense STIB 900 in 50 μL were added to each well and the plate was incubated at 37 °C under a 5% CO2 atmosphere for 72 h. Resazurin solution (resazurin, 12.5 mg in 100 mL double-distilled water) (10 μL) was then added to each well and incubated for a further 2–4 h. At the end of the assay, the plates were read with a Spectramax Gemini XS microplate fluorometer (Molecular Devices Cooperation, Sunnyvale, CA, USA) using an excitation wavelength of 536 nm and an emission wavelength of 588 nm. Data were analyzed using the microplate reader software Softmax Pro (Molecular Devices Cooperation, Sunnyvale, CA, USA). Melarsoprol was used as standard drug.

[4] = test system: P. falciparum; design: method as in PMID 22441836; conditions: cited from earlier work
[5] = test system: T. brucei brucei; design: method as in PMID 20359874; conditions: life stage or form has not been reported; cited from earlier work
[6] = test system: Trypanosoma cruzi; design: method as in earlier work; conditions: 200 mg/kg/day, intragastric route, 22nd day post-infection; cited from earlier work
[7] = In vitro assay for cytotoxicity on mammalian cells (resazurin); type: cell-based, rat
Description: Assays were performed in 96 well microtiter plates (4 × 10^4 L6 cells/well), each well containing 100 μL of RPMI 1640 medium supplemented with 1% L-glutamine (200 mM) and 10% FBS. L6 cells are a primary cell line derived from rat skeletal myoblasts. Serial drug dilutions of seven 3-fold dilution steps covering a range from 90 to 0.123 μg/mL were prepared. After 72 h of incubation, the plates were inspected under an inverted microscope to assure growth of the controls and sterile conditions. Resazurin solution (10 μL) (12.5 mg resazurin in 100 mL double-distilled water) was then added to each well and the plates incubated for another 2 h. The plates were then read with a Spectramax Gemini XS microplate fluorometer (Molecular Devices Cooperation, Sunnyvale, CA, USA) using an excitation wavelength of 536 nm and an emission wavelength of 588 nm. Data were analyzed using the microplate reader software Softmax Pro (Molecular Devices Cooperation, Sunnyvale, CA, USA). From the sigmoidal inhibition curves, the IC50 values were calculated. Podophyllotoxin was the positive control.

[8] = test system: T. cruzi epimastigotes; design: method as in PMID 17024354; conditions: 24 h incubation; cited from earlier work
[9] = test system: L. infantum; design: method as in doi:10.1016/j.indcrop.2015.09.049; conditions: cited from earlier work
[10] = test system: chloroquine-resistant P. falciparum strain; conditions: reported to be inactive; cited from earlier work

Row | SMILES | selective index ([1]; T.-cruzi-infected Vero cells) | IC50 intracellular amastigotes of T.-cruzi-infected Vero cells [1] | IC50 T. cruzi trypomastigotes [2] | IC50 ([3]; Trypanosoma brucei, 72 h, STIB 900 blood stream forms, 72 h; means of two independent determinations ± deviation from the mean; read-out: IC50 Trypanosoma brucei rhodesiense) | IC50 in vitro antimalarial activity [4] | IC50 T. brucei brucei [5] | parasitemia in T. cruzi infected albino mice (in words) [6] | IC50 at 72 h ([7]; L6 cells (rat skeletal myoblasts), rat skeletal myoblasts, 72 h, means of two determinations ± deviation, read-out: IC50 Cytotoxicity L6 cells) | IC50 T. cruzi epimastigotes [8] | IC50 ([3]; Trypanosoma brucei; STIB 900 blood stream forms, 72 h; means of two independent determinations ± deviation from the mean; read-out: IC50 Trypanosoma brucei rhodesiense) | selectivity index (IC50 value against L6 mammalian cells/IC50 value against parasite) ([3]; against T. b. rhodesiense) | IC50 at 72 h ([7]; rat) | IC50 L. infantum [9] | IC50 [10]
1 | Cc1ccc(C(C)C)c(O)c1 [Thymol] | greater than 10 | 3.2 µg/mL | 53 µg/mL (≈ 353 µM) | 0.11 ± 0.01 µg/mL (≈ 0.732 µM) | 4.5 µg/mL (≈ 30 µM) | 22.9 µg/mL (≈ 152 µM) | significant reduction in parasitemia | 51.8 ± 6.2 µg/mL (≈ 345 µM) | 62 µg/mL (≈ 413 µM) | – | – | – | – | –
2 | Cc1ccc(C(C)C)cc1O [Carvacrol] | – | – | – | – | – | 11.3 µg/mL (≈ 75.2 µM) | – | – | – | 0.15 ± 0.04 µg/mL (≈ 0.999 µM) | 327.5 | 48.8 ± 1.1 µg/mL (≈ 325 µM) | 7.35 µg/mL (≈ 48.9 µM) | > 1 mM
